Several values for one entry are separate records, joined by “and”; a condition that tells them apart may be missing. Equal entries are not always repeated.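 Each compound was tested at five concentrations against cells in 96-well plates for 48 hours. Here, GI50 denotes the concentration required for 50% inhibition of growth. TGI: concentration producing complete growth inhibition.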
Legend:
Test in all cases: NCI tumour cell line growth inhibition, 48 h
RXF 393 renal = tested on: RXF 393 renal
UACC-257 melanoma = tested on: UACC-257 melanoma
OVCAR-5 ovarian = tested on: OVCAR-5 ovarian
HCT-116 colon = tested on: HCT-116 colon
KM12 colon = tested on: KM12 colon
SNB-75 CNS = tested on: SNB-75 CNS
SF-295 CNS = tested on: SF-295 CNS
SK-MEL-5 melanoma = tested on: SK-MEL-5 melanoma
MDA-MB-231 breast = tested on: MDA-MB-231 breast
TK-10 renal = tested on: TK-10 renal

Row | SMILES | GI50 (RXF 393 renal) | TGI (RXF 393 renal) | GI50 (UACC-257 melanoma) | TGI (UACC-257 melanoma) | GI50 (OVCAR-5 ovarian) | TGI (OVCAR-5 ovarian) | GI50 (HCT-116 colon) | TGI (HCT-116 colon) | GI50 (KM12 colon) | TGI (KM12 colon) | GI50 (SNB-75 CNS) | TGI (SNB-75 CNS) | GI50 (SF-295 CNS) | TGI (SF-295 CNS) | GI50 (SK-MEL-5 melanoma) | TGI (SK-MEL-5 melanoma) | GI50 (MDA-MB-231 breast) | TGI (MDA-MB-231 breast) | GI50 (TK-10 renal) | TGI (TK-10 renal)
1 | COc1cc(-c2nn(-c3cccc(NC(=O)Nc4ccc(Cl)c(C(F)(F)F)c4)c3)cc2-c2ccncc2)ccc1Cl | 1.18 µM | 6.29 µM | 1.21 µM | 6.03 µM | 3.09 µM | 11 µM | 1.17 µM | 4.56 µM | 1.06 µM | 3.91 µM | 1.28 µM | 10.3 µM | 0.84 µM | 2.54 µM | 0.818 µM | 2.89 µM | 0.76 µM | 2.6 µM | 1.51 µM | 13.5 µM
2 | Cc1ccc2c(C(C[N+](=O)[O-])c3ccccc3)c(-c3ccccc3)[nH]c2c1 (stereo not given) | 10.5 µM | 81.3 µM | 29.3 µM | > 95 µM | 85.3 µM | > 95 µM | 30.2 µM | > 95 µM | 21.6 µM | > 95 µM | 2.87 µM | 43.6 µM | 36.7 µM | > 95 µM | 50.6 µM | > 95 µM | 35.9 µM | > 95 µM | > 95 µM | > 95 µM
3 | O=C1C2CCN(CC2)C1CN1CCOCC1 (stereo not given) | – | 5.33 µM | – | 10.2 µM | – | 13.5 µM | – | 3.73 µM | – | 30.8 µM | – | 36.2 µM | – | 33.9 µM | – | 31 µM | – | 40.5 µM | – | 13.2 µM
4 | O=C(O)Cc1cccc2c(=O)cc(-c3ccccc3)oc12 | > 862 µM | 250 µM and > 1000 µM | 614 µM | > 1000 µM | > 1000 µM | 250 µM and > 1000 µM | 294 µM | 212 µM and > 868 µM | 334 µM | 250 µM and > 889 µM | 345 µM | 249 µM and > 676 µM | 400 µM | 250 µM and > 1000 µM | 407 µM | 250 µM and > 876 µM | 834 µM | > 1000 µM | 990 µM | > 1000 µM
5 | Cc1ccc(S(=O)(=O)ON2C(=O)c3cccc4cc([N+](=O)[O-])cc(c34)C2=O)cc1 | – | > 100 µM | – | > 100 µM | – | > 100 µM | – | > 100 µM | – | > 100 µM | – | > 100 µM | – | > 100 µM | – | > 100 µM | – | > 100 µM | – | > 100 µM
6 | COc1ccc(-c2ncnc3c2ncn3CC#CCCl)cc1 | 2.29 µM | 5.94 µM | 5.74 µM | 21.8 µM | 3.25 µM | 12.1 µM | 3.5 µM | 14.7 µM | 4.85 µM | 17.5 µM | 1.64 µM | 4.84 µM | 2.35 µM | 7.15 µM | 3.16 µM | 12.4 µM | 2.32 µM | 8.28 µM | 7.29 µM | 24 µM
7 | COC(=O)/C=C1/SC(=Nc2cccc(Cl)c2)N(CCc2c[nH]c3ccc(O)cc23)C1=O | 1.51 µM | 2.97 µM | 1.96 µM | 3.99 µM | 1.92 µM | 4.07 µM | 1.18 µM | 2.71 µM | 1.53 µM | 3.29 µM | 2.11 µM | 5.1 µM | 1.85 µM | 4.15 µM | 1.99 µM | 4.19 µM | 1.74 µM | 3.59 µM | 2.29 µM | 5.65 µM
8 | CC(C)(C)OC(=O)C1C(=O)NC(=O)CC1CC(OCc1ccccc1)C(OCc1ccccc1)C(COCc1ccccc1)OCc1ccccc1 (stereo not given) | – | 99.7 µM and 32.6 µM | 47.8 µM and 15.3 µM | > 100 µM | – | > 100 µM | 48.5 µM and 17 µM | > 100 µM | 39 µM and 5.26 µM | > 100 µM and 27.2 µM | – | > 100 µM | – | > 100 µM | 22 µM and 10.6 µM | > 100 µM and 37.6 µM | 42.8 µM and 6.81 µM | > 100 µM | – | > 100 µM
9 | COc1ccc(Br)cc1NC(=O)Nc1cccc2c1ccn2Cc1ccnc(N)c1 | 4.6 µM and 9.23 µM | 16.1 µM and > 10 µM | 9.81 µM and > 10 µM | 27.5 µM and > 10 µM | 12.7 µM and > 10 µM | 58.4 µM and > 10 µM | 5.85 µM and 5.75 µM | 19.5 µM and > 10 µM | 2.57 µM and 4.27 µM | 8.23 µM and > 10 µM | 2.19 µM and 5.1 µM | 42.8 µM and > 10 µM | 3.69 µM and 3.61 µM | 17.6 µM and > 10 µM | 10.2 µM and 5.28 µM | 23 µM and > 10 µM | 3.93 µM and 3.01 µM | 10.6 µM and > 10 µM | 5.33 µM and 7.07 µM | 16.6 µM and > 10 µM
10 | COC[C@H](NC(=O)c1cnc(C)s1)C(=O)N[C@@H](COC)C(=O)N[C@@H](Cc1ccccc1)C(=O)[C@@]1(C)CO1 | 15.5 µM | 33.9 µM | 21.1 µM | > 70.8 µM | 33.3 µM | > 94 µM | 9.27 µM | 32.6 µM | 21.4 µM | 56 µM | 22.3 µM | > 100 µM | 20.1 µM | 72.7 µM | 19.9 µM | 47.1 µM | 16.2 µM | 39 µM | 27.3 µM | > 72.2 µM
11 | CCOC(=O)C(=Cc1ccc(C#N)cc1)C(=O)OCC | 1.87 µM | 3.36 µM | 2.41 µM | 5.63 µM | 2.61 µM | 11.2 µM | 2.15 µM | 4.22 µM | 2.86 µM | 8.8 µM | 2.17 µM | 10.5 µM | 8.56 µM | 21.2 µM | 1.92 µM | 3.67 µM | 2.69 µM | 6.95 µM | 2.28 µM | 7.3 µM
12 | CCC(CC)n1cnc2c(-c3cnc(N)cn3)nc(N3CC4CCC(C3)O4)nc21 | 0.153 µM | 1.6 µM | 0.289 µM | 4.07 µM | 0.374 µM | > 100 µM | 0.63 µM | > 100 µM | 0.377 µM | > 100 µM | 0.0848 µM | 1.18 µM | 0.173 µM | 1.59 µM | 0.138 µM | 1.21 µM | 0.191 µM | > 100 µM | 0.168 µM | 5.15 µM
13 | Cc1ccc(CNc2ccc3nc(CCC4CCCCC4)[nH]c3c2)cc1 | 2.06 µM | 5.38 µM | 2.37 µM | 6.44 µM | 2.52 µM | 8.18 µM | 1.95 µM | 5.05 µM | 2.83 µM | 9.05 µM | 1.75 µM | 5.25 µM | 1.88 µM | 3.92 µM | 1.69 µM | 3.09 µM | 1.68 µM | 3.33 µM | 2.87 µM | 10.4 µM

From PubChem BioAssay (NCI)
